We go through 20 molecules from patent US20260001914A1, “MACROCYCLIC PEPTIDES TARGETING KRAS” (Merck Sharp & Dohme LLC, priority 2022, published 2026).

Structures are written as SMILES. *1 amine or outer side, *2 acyl side, *3 side chain or, on linkers, in order; H or OH if unused. Where a SMILES comes first, the peptide text is derived from it. Bridges are numbered along the chain shown (N, C = ends). [ ]: non-standard residue; d: D form. Phe(4-guanidino) = N=C(N)Nc1ccc(C[C@H](N)C(=O)O)cc1; Ala(pyrimidin-5-yl) = N[C@@H](Cc1cncnc1)C(=O)O; X29 = CC(=O)N(C)CCC[C@@H](C(=O)[*:2])N(C)[*:1]; Ala(thiazol-5-yl) = N[C@@H](Cc1cncs1)C(=O)O; NMe3Pal(5-F) = CN[C@@H](Cc1cncc(F)c1)C(=O)O; NMePhe(3-Me) = CN[C@@H](Cc1cccc(C)c1)C(=O)O; X14 = O=C([C@H](Cc1c(F)cncc1F)N[*:1])[*:2]; X25 = O=C([C@H](Cc1ccc(F)nc1)N[*:1])[*:2]; Leu(4,5-dehydro) = C=C(C)C[C@H](N)C(=O)O; X11 = CC(C)(F)CC[C@H](N[*:1])C(=O)[*:2]; X30 = O=C([C@H](Cc1ncccc1F)N[*:1])[*:2]; Phe(4-F) = N[C@@H](Cc1ccc(F)cc1)C(=O)O; Ala(cPent) = N[C@@H](CC1CCCC1)C(=O)O; Phe(2-F) = N[C@@H](Cc1ccccc1F)C(=O)O; X31 = O=C([C@H](CCC1CC1)N[*:1])[*:2]; NMe3Pal = CN[C@@H](Cc1cccnc1)C(=O)O; X1 = O=C(C12CC(CN[*:1])(C1)C2)[*:2]; X41 = COCCC[C@H](N[*:1])C(=O)[*:2]; Ala(cPr) = N[C@@H](CC1CC1)C(=O)O; NMeF = CN[C@@H](Cc1ccccc1)C(=O)O; PhLac = O=C(O)[C@@H](O)Cc1ccccc1; 3Pal = N[C@@H](Cc1cccnc1)C(=O)O; Ahp(2) = CCCCC[C@H](N)C(=O)O; Cba = N[C@@H](CC1CCC1)C(=O)O; hLeu = CC(C)CC[C@H](N)C(=O)O; NMeAbu = CC[C@H](NC)C(=O)O; αMeC = C[C@](N)(CS)C(=O)O; NMeA = CN[C@@H](C)C(=O)O; Nle = CCCC[C@H](N)C(=O)O

This test deals with phosphorylation levels of ERK1/2 in AsPC-1 (homozygous KRAS-G12D) cells (Homo sapiens, UniProt P01116, G12D). Description: Cellular phospho-ERK assay in AsPC-1 cells (Alpha Screen), assay medium without fetal bovine serum.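 Note: signal taken as phospho-ERK over total ERK per well, both detected in one multiplex bead assay, EC50 from four-parameter logistic fit of dose-response curves.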 The class given is cell-based. The note with it: phospho-ERK AlphaScreen, 18 h.
Chain of phosphorylation levels of ERK1/2 in AsPC-1 (homozygous KRAS-G12D) cells (P01116 1-186 G12D): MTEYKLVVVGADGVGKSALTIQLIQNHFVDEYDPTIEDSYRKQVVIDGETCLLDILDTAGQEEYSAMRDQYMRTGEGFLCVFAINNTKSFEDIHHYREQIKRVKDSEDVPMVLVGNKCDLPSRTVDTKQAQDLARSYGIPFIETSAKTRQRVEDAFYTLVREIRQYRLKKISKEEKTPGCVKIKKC
In turn, `CCCCC[C@@H]1NC(=O)[C@H](Cc2ccc(OC)cc2)NC(=O)[C@H](CC2CCC2)NC(=O)[C@H](Cc2cnn(C)c2)NC(=O)[C@H](CCCNC(=N)N)NC(=O)[C@H](Cc2ccccc2)NC(=O)CSC[C@@](C)(C(N)=O)NC(=O)[C@H](Cc2ccccc2)N(C)C1=O` [compound 372, cyclo(F-R-Ala4PyzlMe-cBuA-TyrOMe-Ahp-NMeF-aMeCl-ClAc)] yielded an EC50 of over 50.8 µM.

With `C[C@H]1C(=O)N[C@@H](Cc2cncnc2)C(=O)N[C@@H](CC2CCC2)C(=O)N[C@@H](Cc2ccccc2F)C(=O)N[C@@H](CCC2CC2)C(=O)N(C)[C@@H](Cc2ccccc2)C(=O)NCC23CC(C2)(C3)C(=O)O[C@@H](Cc2ccccc2)C(=O)N1C` [compound 115, cyclo(FLac-NMeA-PyrimAla-cBuA-Phe2F-hcPrA-NMeF-amBCP)] (cyclo([Cba][Phe(2-F)][X31][NMeF][X1][PhLac][NMeA][Ala(pyrimidin-5-yl)])), it took 0.437 µM to reach a half-maximal effect (EC50). In the case of `CCCC[C@@H]1NC(=O)[C@H](Cc2cccnc2)NC(=O)[C@H](CC)N(C)C(=O)[C@H](Cc2ccccc2)OC(=O)C23CC(CNC(=O)[C@H](Cc4cccnc4)N(C)C(=O)[C@H](CCCC)NC(=O)[C@H](Cc4ccccc4F)NC1=O)(C2)C3` [compound 404, cyclo(FLac-NMeAbu-3Pal-Nle-Phe2F-Nle-NMe3Pal-amBCP)] (cyclo([3Pal][Nle][Phe(2-F)][Nle][NMe3Pal][X1][PhLac][NMeAbu])) it was 31 µM. In the case of `CCCC[C@@H]1NC(=O)[C@H](Cc2cncnc2)NC(=O)[C@H](C)N(C)C(=O)[C@H](Cc2ccccc2)OC(=O)C23CC(CNC(=O)[C@H](Cc4ccccc4)N(C)C(=O)[C@H](CCCC)NC(=O)[C@H](Cc4ncccc4F)NC1=O)(C2)C3` [compound 229, cyclo(FLac-NMeA-PyrimAla-Nle-2Pal6F-Nle-NMeF-amBCP)] (cyclo([NMeA][Ala(pyrimidin-5-yl)][Nle][X30][Nle][NMeF][X1][PhLac])) it was 48.7 µM. In turn, `CCCCC[C@@H]1NC(=O)[C@H](Cc2ccc(OC)cc2)NC(=O)[C@H](CC2CCCC2)NC(=O)[C@H](Cc2ccc(NC(=N)N)cc2)NC(=O)[C@H](CCCNC(=N)N)NC(=O)[C@H](Cc2ccccc2)NC(=O)CSC[C@@](C)(C(N)=O)NC(=O)[C@H](Cc2ccccc2)N(C)C1=O` [compound 366, cyclo(F-R-Phe4Gn-cPeA-TyrOMe-Ahp-NMeF-aMeCl-ClAc)] ({CH2CO}-FR[Phe(4-guanidino)][Ala(cPent)]Y(Me)[Ahp(2)][NMeF][αMeC]-NH2; thioether N-8) came in with a half-maximal effective concentration (EC50) of 12.2 µM. In turn, `CCCCC[C@@H]1NC(=O)[C@H](Cc2ccc(OC)cc2)NC(=O)[C@H](CC2CCC2)NC(=O)[C@H](Cc2cncnc2)NC(=O)[C@H](CCCNC(=N)N)NC(=O)[C@H](Cc2ccccc2)NC(=O)CSC[C@@](C)(C(N)=O)NC(=O)[C@H](Cc2ccccc2)N(C)C1=O` [compound 367, cyclo(F-R-PyrimAla-cBuA-TyrOMe-Ahp-NMeF-aMeCl-ClAc)] ({CH2CO}-FR[Ala(pyrimidin-5-yl)][Cba]Y(Me)[Ahp(2)][NMeF][αMeC]-NH2; thioether N-8) came in with an EC50 of over 50.8 µM.

`C[C@H]1C(=O)N[C@@H](Cc2cccnc2)C(=O)N[C@@H](CC2CC2)C(=O)N[C@@H](Cc2ccccc2F)C(=O)N[C@@H](CCC(C)(C)F)C(=O)N(C)[C@@H](Cc2cncc(F)c2)C(=O)NCC23CC(C2)(C3)C(=O)O[C@@H](Cc2ccccc2)C(=O)N1C` [compound 284, cyclo(FLac-NMeA-3Pal-cPrA-Phe2F-hL3F-NMe3Pal5F-amBCP)] (cyclo([3Pal][Ala(cPr)][Phe(2-F)][X11][NMe3Pal(5-F)][X1][PhLac][NMeA])) registered a concentration for a half-maximal effect (EC50) of 4.59 µM. `CCCCC[C@@H]1NC(=O)[C@H](Cc2ccc(OC)cc2)NC(=O)[C@H](CC2CCC2)NC(=O)[C@H](Cc2cncs2)NC(=O)[C@H](CCCNC(=N)N)NC(=O)[C@H](Cc2ccccc2)NC(=O)CSC[C@@](C)(C(N)=O)NC(=O)[C@H](Cc2ccccc2)N(C)C1=O` [compound 363, cyclo(F-R-TZAla-cBuA-TyrOMe-Ahp-NMeF-aMeCl-ClAc)] ({CH2CO}-FR[Ala(thiazol-5-yl)][Cba]Y(Me)[Ahp(2)][NMeF][αMeC]-NH2; thioether N-8) had an EC50 of over 50.8 µM. The same measure for `CCCC[C@@H]1NC(=O)[C@H](CCCOC)NC(=O)[C@H](CC2CCC2)NC(=O)[C@H](Cc2cccnc2)NC(=O)[C@H](CCCNC(=N)N)NC(=O)[C@H](Cc2ccccc2)NC(=O)CSC[C@@](C)(C(N)=O)NC(=O)[C@H](Cc2ccccc2)N(C)C1=O` [compound 55, cyclo(F-R-3Pal-cBuA-NvaOMe-Nle-NMeF-aMeCl-ClAc)] ({CH2CO}-FR[3Pal][Cba][X41][Nle][NMeF][αMeC]-NH2; thioether N-8): over 50.8 µM; for `CCCC[C@@H]1NC(=O)[C@H](Cc2ccccc2F)NC(=O)C(CC2CC(F)(F)C2)NC(=O)[C@H](Cc2cncnc2)NC(=O)[C@H](C)N(C)C(=O)[C@H](Cc2ccccc2)OC(=O)C23CC(CNC(=O)[C@H](Cc4cccnc4)N(C)C1=O)(C2)C3` (single isomer, unassigned) [compound 122, cyclo(FLac-NMeA-PyrimAla-rF2Cba-Phe2F-Nle-NMe3Pal-amBCP)]: over 50.8 µM. The same measure for `C[C@H]1C(=O)N[C@@H](Cc2cncnc2)C(=O)N[C@@H](CC2CC2)C(=O)N[C@@H](Cc2ccccc2F)C(=O)N[C@@H](CCC2CC2)C(=O)N(C)[C@@H](Cc2ccccc2)C(=O)NCC23CC(C2)(C3)C(=O)O[C@@H](Cc2ccccc2)C(=O)N1C` [compound 114, cyclo(FLac-NMeA-PyrimAla-cPrA-Phe2F-hcPrA-NMeF-amBCP)] (cyclo([Ala(cPr)][Phe(2-F)][X31][NMeF][X1][PhLac][NMeA][Ala(pyrimidin-5-yl)])): 0.615 µM; for `CCCC[C@@H]1NC(=O)[C@H](Cc2cccnc2)NC(=O)[C@H](C)N(C)C(=O)[C@H](Cc2ccc(F)cc2)NC(=O)C23CC(CNC(=O)[C@H](Cc4cccnc4)N(C)C(=O)[C@H](CCCC)NC(=O)[C@H](Cc4ccccc4F)NC1=O)(C2)C3` [compound 167, cyclo(Phe4F-NMeA-3Pal-Nle-Phe2F-Nle-NMe3Pal-amBCP)] (cyclo([3Pal][Nle][Phe(2-F)][Nle][NMe3Pal][X1][Phe(4-F)][NMeA])): 42.8 µM. In the case of `CCCC[C@@H]1NC(=O)[C@H](Cc2cccnc2)NC(=O)[C@H](CCCN(C)C(C)=O)N(C)C(=O)[C@H](Cc2ccccc2)OC(=O)C23CC(CNC(=O)[C@H](Cc4cccnc4)N(C)C(=O)[C@H](CCCC)NC(=O)[C@H](Cc4ccccc4F)NC1=O)(C2)C3` [compound 405, cyclo(FLac-NMeOrnAc-3Pal-Nle-Phe2F-Nle-NMe3Pal-amBCP)] (cyclo([3Pal][Nle][Phe(2-F)][Nle][NMe3Pal][X1][PhLac][X29])) it was over 50.8 µM; in that of `Cc1cccc(C[C@H]2C(=O)NCC34CC(C3)(C4)C(=O)O[C@@H](Cc3ccccc3)C(=O)N(C)[C@@H](C)C(=O)N[C@@H](Cc3cncnc3)C(=O)N[C@@H](CC3CC3)C(=O)N[C@@H](Cc3ccccc3F)C(=O)N[C@@H](CCC(C)(C)F)C(=O)N2C)c1` [compound 274, cyclo(FLac-NMeA-PyrimAla-cPrA-Phe2F-hL3F-NMePhe3Me-amBCP)] (cyclo([Ala(cPr)][Phe(2-F)][X11][NMePhe(3-Me)][X1][PhLac][NMeA][Ala(pyrimidin-5-yl)])), 0.604 µM; in that of `C=C(C)C[C@@H]1NC(=O)[C@H](CC2CC2)NC(=O)[C@H](Cc2cncnc2)NC(=O)[C@H](C)N(C)C(=O)[C@H](Cc2ccccc2)OC(=O)C23CC(CNC(=O)[C@H](Cc4ccccc4)N(C)C(=O)[C@H](CCC(C)C)NC1=O)(C2)C3` [compound 287, cyclo(FLac-NMeA-PyrimAla-cPrA-deHLeu-hL-NMeF-amBCP)] (cyclo([Ala(cPr)][Leu(4,5-dehydro)][hLeu][NMeF][X1][PhLac][NMeA][Ala(pyrimidin-5-yl)])), 17.1 µM.

Take `CC(C)CC[C@@H]1NC(=O)[C@H](Cc2ccccc2F)NC(=O)[C@H](CC2CCC2)NC(=O)[C@H](Cc2cncnc2)NC(=O)[C@H](C)N(C)C(=O)[C@H](Cc2ccccc2)OC(=O)C23CC(CNC(=O)[C@H](Cc4ccccc4)N(C)C1=O)(C2)C3` [compound 134, cyclo(FLac-NMeA-PyrimAla-cBuA-Phe2F-hL-NMeF-amBCP)] (cyclo([Cba][Phe(2-F)][hLeu][NMeF][X1][PhLac][NMeA][Ala(pyrimidin-5-yl)])): the EC50 is 0.33 µM. `CC(C)CC[C@@H]1NC(=O)[C@H](Cc2c(F)cncc2F)NC(=O)[C@H](CC2CC2)NC(=O)[C@H](Cc2cncnc2)NC(=O)[C@H](C)N(C)C(=O)[C@H](Cc2ccccc2)OC(=O)C23CC(CNC(=O)[C@H](Cc4ccccc4)N(C)C1=O)(C2)C3` [compound 292, cyclo(FLac-NMeA-PyrimAla-cPrA-4Pal26F2-hL-NMeF-amBCP)] (cyclo([Ala(cPr)][X14][hLeu][NMeF][X1][PhLac][NMeA][Ala(pyrimidin-5-yl)])) yielded an EC50 of 14.5 µM.

`CCCC[C@@H]1NC(=O)[C@H](Cc2ccc(F)nc2)NC(=O)[C@H](C)N(C)C(=O)[C@H](Cc2ccccc2)OC(=O)C23CC(CNC(=O)[C@H](Cc4ccccc4)N(C)C(=O)[C@H](CCCC)NC(=O)[C@H](Cc4ccccc4F)NC1=O)(C2)C3` [compound 231, cyclo(FLac-NMeA-4F3Pal-Nle-Phe2F-Nle-NMeF-amBCP)] (cyclo([NMeA][X25][Nle][Phe(2-F)][Nle][NMeF][X1][PhLac])) registered an EC50 of 0.589 µM. In the case of `CCCC[C@@H]1NC(=O)[C@H](Cc2cccnc2)NC(=O)[C@H](C)N(C)C(=O)[C@H](Cc2ccc(O)cc2)NC(=O)C23CC(CNC(=O)[C@H](Cc4cccnc4)N(C)C(=O)[C@H](CCCC)NC(=O)[C@H](Cc4ccccc4F)NC1=O)(C2)C3` [compound 168, cyclo(Y-NMeA-3Pal-Nle-Phe2F-Nle-NMe3Pal-amBCP)] (cyclo(Y[NMeA][3Pal][Nle][Phe(2-F)][Nle][NMe3Pal][X1])) it was 46.4 µM; in that of `CCCCC[C@@H]1NC(=O)[C@H](Cc2ccc(OC)cc2)NC(=O)[C@H](CC2CCC2)NC(=O)[C@H](Cc2cccnc2)NC(=O)[C@H](CCCNC(=N)N)NC(=O)[C@H](Cc2ccccc2)OC(=O)C23CC(CNC(=O)[C@H](Cc4ccccc4)N(C)C1=O)(C2)C3` [compound 211, cyclo(FLac-R-3Pal-cBuA-TyrOMe-Ahp-NMeF-amBCP)] (cyclo([PhLac]R[3Pal][Cba]Y(Me)[Ahp(2)][NMeF][X1])), over 50.8 µM.
